Measurements taken from patent US9809598B2 (Merck Patent GmbH, priority 2014, dated 2017).
Structures can show the parent of a compound that is named as a salt. Where two headings read alike, the source gives them in different places.

Key:
PARP-1 = biological target: T1, PARP-1 (Homo sapiens, UniProt P09874); experiment: PARP-1 autoparsylation assay (HTRF); assay type: biochemical; settings: His-tagged Parp-1, autoparsylation HTRF
T1 construct: purchased Enzo Life Sciences GmbH, Lörrach, Germany
T1 sequence (P09874 whole entry): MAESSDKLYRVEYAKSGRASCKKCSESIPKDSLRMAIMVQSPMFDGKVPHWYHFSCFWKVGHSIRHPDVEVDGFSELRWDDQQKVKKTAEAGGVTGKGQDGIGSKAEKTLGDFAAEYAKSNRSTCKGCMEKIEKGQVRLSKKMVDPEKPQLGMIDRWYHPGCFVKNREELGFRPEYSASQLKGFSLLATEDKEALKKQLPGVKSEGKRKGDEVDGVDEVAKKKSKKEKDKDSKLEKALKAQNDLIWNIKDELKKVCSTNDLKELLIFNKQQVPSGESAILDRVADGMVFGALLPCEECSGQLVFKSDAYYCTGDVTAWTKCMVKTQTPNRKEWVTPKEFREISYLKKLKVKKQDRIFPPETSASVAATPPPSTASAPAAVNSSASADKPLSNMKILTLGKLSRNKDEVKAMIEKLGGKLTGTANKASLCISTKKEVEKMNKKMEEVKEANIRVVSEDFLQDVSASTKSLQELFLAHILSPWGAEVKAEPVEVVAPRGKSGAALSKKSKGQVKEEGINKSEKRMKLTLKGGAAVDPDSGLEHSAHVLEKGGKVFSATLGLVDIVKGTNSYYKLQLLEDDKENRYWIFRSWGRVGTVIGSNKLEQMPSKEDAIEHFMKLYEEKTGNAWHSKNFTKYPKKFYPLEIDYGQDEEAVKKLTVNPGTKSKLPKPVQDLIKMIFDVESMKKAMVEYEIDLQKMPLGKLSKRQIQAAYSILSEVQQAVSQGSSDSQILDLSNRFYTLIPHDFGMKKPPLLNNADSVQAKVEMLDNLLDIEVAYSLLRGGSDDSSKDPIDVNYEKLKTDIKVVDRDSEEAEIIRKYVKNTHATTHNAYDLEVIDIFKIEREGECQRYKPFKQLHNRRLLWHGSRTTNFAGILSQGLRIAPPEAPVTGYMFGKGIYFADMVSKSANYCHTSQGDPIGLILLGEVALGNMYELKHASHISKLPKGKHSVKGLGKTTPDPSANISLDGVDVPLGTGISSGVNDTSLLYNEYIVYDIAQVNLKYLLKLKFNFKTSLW
From the text: Description of the PARP1 Assay
Biochemical Activity Testing of PARP-1: Autoparsylation Assay
The autoparsylation assay is run in two steps: the enzymatic reaction in which His-tagged Parp-1 transfers biotinylated ADP-ribose/ADP-ribose to itself from biotinylated NAD/NAD as co-substrate and the detection reaction where a time resolved FRET between cryptate labelled anti-His antibody bound to the His tag of the enzyme and Xlent® labelled-streptavidin bound the biotin-parsylation residue is analysed. The autoparsylation activity is detectable directly via the increase in HTRF signal.
The autoparsylation assay is performed as 384-well HTRF® (Cisbio, Codolet, France) assay format in Greiner low volume nb 384-well microtiter plates. […] The ratio of the emission signals is determined. The full value used is the inhibitor-free reaction. The pharmacological zero value used is Olaparib (LClabs, Woburn, US) in a final concentration of 1 μM. The inhibitory values (IC50) are determined using either the program Symyx Assay Explorer® or Condosseo® from GeneData.

Tankyrases = settings: read-out: EC50 [M] TNKS cellular assay; DLD1 cells, 24 hours, Axin2 increase
Method: Measurement of Cellular Inhibition of Tankyrase
Cells of the colon carcinoma cell line DLD1 are plated in 96 well plates with 1.5×10^4 cells per well. Next day, cells are treated with a serial dilution of test compound in seven steps as triplicates with a final DMSO concentration of 0.3%. […] The amount of isolated Axin2 protein is determined in a Luminex^200 machine (Luminex Corporation) according to the manufacturer's instruction by counting 100 events per well. […] As controls cells are treated with solvent alone (neutral control) and with a Tankyrase reference inhibitor IWR-2 (3E−06 M) which refers as control for maximum increase of Axin2. For analysis, the obtained data are normalized against the untreated solvent control and fitted for determination of the EC50 values using the Assay Explorer software (Accelrys).

TNKS2 = biological target: T2, TNKS2 (Homo sapiens, UniProt Q9H2K2); experiment: TNKS2 activity ELISA (autoparsylation assay); assay type: biochemical
T2 construct: GST-tagged Tnks-2 (873-1166 aa, prepared in-house); made in house
T2 sequence (Q9H2K2 873-1166): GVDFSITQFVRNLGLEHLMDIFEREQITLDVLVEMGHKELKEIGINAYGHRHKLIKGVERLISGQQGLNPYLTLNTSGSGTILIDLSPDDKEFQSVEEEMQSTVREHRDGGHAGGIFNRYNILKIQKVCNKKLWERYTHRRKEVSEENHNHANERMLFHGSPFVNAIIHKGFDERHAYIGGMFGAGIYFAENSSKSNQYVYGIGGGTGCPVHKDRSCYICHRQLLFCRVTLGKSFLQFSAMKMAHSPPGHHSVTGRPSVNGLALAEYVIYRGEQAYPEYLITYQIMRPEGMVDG
Method: (§1) Description of the TNKS1 and TNKS2 ELISA Assay
(§2) Biochemical Activity Testing of TNKS 1 and 2: Activity ELISA (Autoparsylation Assay)
(§3) For analysis of autoparsylation activity of TNKS 1 and 2 an activity ELISA iss performed: In the first step GST tagged TNKS is captured on a Glutathione coated plate. Then the activity assay with biotinylated NAD is performed in the absence/presence of the compounds. During the enzymatic reaction GST tagged TNKS transfers biotinylated ADP-ribose to itself from biotinylated NAD as co-substrate. For the detection streptavidin-HRP conjugate is added that binds to the biotinylated TNKS and is thereby captured to the plates. The amount of biotinylated resp. autoparsylated TNKS is detected with a luminescence substrate for HRP. The level of the luminescence signal correlats directly with the amount of autoparsylated TNKS and therefore with activity of TNKS.
(§4) The activity ELISA is performed in 384 well Glutathione coated microtiter plates (Express capture Glutathione coated plate, Biocat, Heidelberg, Germany). The plates are pre-equilibrated with PBS. […] The plates are washed 3 times with PBS-Tween-20. The wells are blocked by incubation at room temperature for 20 minutes with 50 μl blocking buffer (PBS, 0.05% Tween-20, 0.5% BSA). Afterwards the plates are washed 3 times with PBS-Tween-20. […] The reaction is stopped by 3 times washing with PBS-Tween-20. For the detection 50 μl of 20 ng/μl Streptavidin, HRP conjugate (MoBiTec, Göttingen, Germany) in PBS/0.05% Tween-20/0.01% BSA are added and the plates are incubated for 30 minutes at room temperature. After three times washing with PBS-Tween-20 50 μl of SuperSignal ELISA Femto Maximum sensitivity substrate solution (ThermoFisherScientific (Pierce), Bonn, Germany) are added. Following a 1 minute incubation at room temperature luminescence signals are measured with an Envision multimode reader (Perkin Elmer LAS Germany GmbH) at 700 nm. The full value used is the inhibitor-free reaction. […] The inhibitory values (IC50) are determined using either the program Symyx Assay Explorer® or Condosseo® from GeneData.

TNKS1 = biological target: T3, TNKS1 (Homo sapiens, UniProt O95271); experiment: TNKS1 activity ELISA (autoparsylation assay); assay type: biochemical; settings: GST-tagged Tnks-1 (1023-1327 aa)
T3 construct: GST-tagged Tnks-1 (1023-1327 aa, prepared in-house); made in house
T3 sequence (O95271 1023-1327): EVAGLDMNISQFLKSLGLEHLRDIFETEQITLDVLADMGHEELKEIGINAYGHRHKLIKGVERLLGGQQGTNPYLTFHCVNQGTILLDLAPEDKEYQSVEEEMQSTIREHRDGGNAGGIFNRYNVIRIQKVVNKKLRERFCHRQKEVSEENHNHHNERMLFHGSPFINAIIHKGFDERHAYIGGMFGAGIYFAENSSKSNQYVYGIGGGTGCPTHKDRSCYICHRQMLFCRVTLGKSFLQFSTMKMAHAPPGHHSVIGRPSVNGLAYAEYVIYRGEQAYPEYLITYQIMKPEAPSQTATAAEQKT
Method: as §1, §2, §3, §4

[1] = GST-tagged Tnks-2 (873-1166 aa), read-out: IC50 [M] TNKS2 ELISA

| SMILES | IC50 (PARP-1) [nM] | EC50 (Tankyrases) [M] | IC50 (TNKS2; [1]) [M] | IC50 (TNKS1) [nM] | IC50 (TNKS2) [M] |
| --- | --- | --- | --- | --- | --- |
| Cn1ncc2c(=O)[nH]c(CCCC(=O)N3CCC(c4nnc(-c5ccccc5)o4)CC3)nc21 [Compound C46, 1-Methyl-6-{4-oxo-4[4-(5-phenyl-[1,3,4]oxadiazol-2-yl)-piperidin-1-yl]-butyl}-1,5-dihydro-pyrazolo[3,4-d]pyrimidin-4-one] | 7200 | 6.6e-08 | 2.4e-09 | 2.9 | – |
| Cn1ncc2c(=O)[nH]c(CCCC(=O)N3CCC(Oc4ccc(C#N)cc4)CC3)nc21 [Compound C47, 4-{1-[4-(1-Methyl-4-oxo-4,5-dihydro-1H-pyrazolo[3,4-d]pyrimidin-6-yl)-butyryl]-piperidin-4-yloxy}-benzonitrile] | 4400 | 4.5e-07 | 4.1e-08 | 110 | – |
| COc1ccc(C(=O)C2CCN(C(=O)CCCc3nc4c(cnn4C)c(=O)[nH]3)CC2)cc1C [Compound C49, 6-{4-[4-(4-Methoxy-3-methyl-benzoyl)-piperidin-1-yl]-4-oxo-butyl}-1-methyl-1,5-dihydro-pyrazolo[3,4-d]pyrimidin-4-one] | 9900 | 3.1e-10 | 1.4e-10 | 0.16 | – |
| Cn1ncc2c(=O)[nH]c(CCCC(=O)N3CCC(C(=O)c4ccc(C(C)(C)O)cc4)CC3)nc21 [Compound C50, 6-{4-{4-[4-(1-Hydroxy-1-methyl-ethyl)benzoyl]-1-piperidyl}-4-oxo-butyl}-1-methyl-5H-pyrazolo[3,4-d]pyrimidin-4-one] | 23000 | 3.8e-07 | 4e-09 | 11 | – |
| Cc1csc2c(=O)[nH]c(CCCC(=O)N3CCC(c4nnc(-c5ccccc5)o4)CC3)nc12 [Compound C54, 7-Methyl-2-{4-oxo-4-[4-(5-phenyl-[1,3,4]oxadiazol-2-yl)-piperidin-1-yl]-butyl}-3H-thieno[3,2-d]pyrimidin-4-one] | 1500 | 1.4e-08 | 1.8e-09 | 4.7 | – |
| COc1ccc(C(=O)C2CCN(C(=O)CCCc3nc4c(C)csc4c(=O)[nH]3)CC2)cc1F [Compound C55, 2-{4-[4-(3-Fluoro-4-methoxy-benzoyl)-piperidin-1-yl]-4-oxo-butyl}-7-methyl-3H-thieno[3,2-d]pyrimidin-4-one] | 400 | 1.9e-09 | 1.2e-10 | 0.18 | – |
| Cc1csc2c(=O)[nH]c(CCCC(=O)N3CCC(c4cnc(N)c(C#N)c4)CC3)nc12 [Compound C56, 6-Amino-1′-[4-(7-methyl-4-oxo-3,4-dihydro-thieno[3,2-d]pyrimidin-2-yl)-butyryl]-1′,2′,3′,4′,5′,6′-hexahydro-[3,4′]bipyridinyl-5-carbonitrile] | 360 | 3.6e-08 | 5.3e-10 | 0.95 | – |
| COc1ccc(C(=O)C2CCN(C(=O)CCCc3cn4c(C)ccc4c(=O)[nH]3)CC2)cn1 [Compound C57, 3-{4-[4-(6-Methoxy-pyridine-3-carbonyl)-piperidin-1-yl]-4-oxo-butyl}-6-methyl-2H-pyrrolo[1,2-a]pyrazin-1-one] | 0.48 | 7.7e-10 | – | 0.19 | 1.8e-10 |
| Cc1ccc2c(=O)[nH]c(CCCC(=O)N3CCC(C(=O)c4cnn(C)c4)CC3)cn12 [Compound C62, 6-Methyl-3-{4-[4-(1-methyl-1H-pyrazole-4-carbonyl)-piperidin-1-yl]-4-oxo-butyl}-2H-pyrrolo[1,2-a]pyrazin-1-one] | 800 | 3.5e-09 | 1.2e-10 | 0.16 | – |
| Cn1cc(C(=O)C2CCN(C(=O)CCCc3cn4cc(F)cc4c(=O)[nH]3)CC2)cn1 [Compound C78, 7-Fluoro-3-{4-[4-(1-methyl-1H-pyrazole-4-carbonyl)-piperidin-1-yl]-4-oxo-butyl}-2H-pyrrolo[1,2-a]pyrazin-1-one] | 1200 | 2.9e-09 | 1.6e-10 | 0.24 | – |
| COc1ccc(C(=O)C2CCN(C(=O)CCCc3cn4c(C)ncc4c(=O)[nH]3)CC2)cn1 [Compound C99, 6-{4-[4-(6-Methoxy-pyridine-3-carbonyl)-piperidin-1-yl]-4-oxo-butyl}-3-methyl-7H-imidazo[1,5-a]pyrazin-8-one] | 6700 | 1.1e-08 | 1.1e-08 | 0.37 | – |
| Cc1ncc2c(=O)[nH]c(CCCC(=O)N3CCC(C(=O)c4cnn(C)c4)CC3)cn12 [Compound C105, 3-Methyl-6-{4-[4-(1-methyl-1H-pyrazole-4-carbonyl)-piperidin-1-yl]-4-oxo-butyl}-7H-imidazo[1,5-a]pyrazin-8-one] | 29000 | 3.9e-07 | 5.7e-10 | 0.43 | – |
| COc1ccc(C(=O)C2CCN(C(=O)CCCc3nc4c(C)scc4c(=O)[nH]3)CC2)cc1F [Compound C113, 2-{4-[4-(3-Fluoro-4-methoxy-benzoyl)-piperidin-1-yl]-4-oxo-butyl}-7-methyl-3H-thieno[3,4-d]pyrimidin-4-one] | 29000 | 2.6e-09 | 2.4e-10 | 0.38 | – |
| Cc1scc2c(=O)[nH]c(CCCC(=O)N3CCC(c4cnc(N)c(C#N)c4)CC3)nc12 [Compound C115, 6-Amino-1′-[4-(7-methyl-4-oxo-3,4-dihydro-thieno[3,4-d]pyrimidin-2-yl)-butyryl]-1′,2′,3′,4′,5′,6′-hexahydro-[3,4′]bipyridinyl-5-carbonitrile trifluoroacetate] | 570 | 4.9e-08 | 1.3e-09 | 0.98 | – |
| Cc1scc2c(=O)[nH]c(CCCC(=O)N3CCC(c4cnc(N)c(-c5ncccn5)c4)CC3)nc12 [Compound C116, 2-[4-(6-Amino-5-pyrimidin-2-yl-3′,4′,5′,6′-tetrahydro-2′H-[3,4′]bipyridinyl-1′-yl)-4-oxo-butyl]-7-methyl-3H-thieno[3,4-d]pyrimidin-4-one] | 970 | 3.6e-09 | 2.1e-10 | 0.37 | – |
| Cc1scc2c(=O)[nH]c(CCCC(=O)N3CCC(c4nnc(-c5ccccc5)o4)CC3)nc12 [Compound C117, 7-Methyl-2-{4-oxo-4-[4-(5-phenyl-[1,3,4]oxadiazol-2-yl)-piperidin-1-yl]-butyl}-3H-thieno[3,4-d]pyrimidin-4-one] | 820 | 1.3e-07 | 5.7e-09 | 8.2 | – |
| Cc1scc2c(=O)[nH]c(CCCC(=O)N3CCC(Oc4ccc(C#N)cc4)CC3)nc12 [Compound C118, 4-{1-[4-(7-Methyl-4-oxo-3,4-dihydro-thieno[3,4-d]pyrimidin-2-yl)-butyryl]-piperidin-4-yloxy}-benzonitrile] | 850 | 9.1e-07 | 8.9e-08 | 110 | – |
| Cc1scc2c(=O)[nH]c(CCCC(=O)N3CCC(C(=O)c4ccc(F)cc4)CC3)nc12 [Compound C119, 2-{4-[4-(4-Fluoro-benzoyl)-piperidin-1-yl]-4-oxo-butyl}-7-methyl-3H-thieno[3,4-d]pyrimidin-4-one] | 850 | 3.3e-08 | 6.2e-10 | 0.9 | – |
| Cc1scc2c(=O)[nH]c(CCCC(=O)N3CCC(C(=O)c4ccc(C(C)(C)O)cc4)CC3)nc12 [Compound C121, 2-(4-{4-[4-(1-Hydroxy-1-methyl-ethyl)-benzoyl]-piperidin-1-yl}-4-oxo-butyl)-7-methyl-3H-thieno[3,4-d]pyrimidin-4-one] | 3100 | 6.8e-08 | 2.4e-09 | 4.7 | – |
